Source: patent US20240131007A1, “METHODS AND COMPOSITIONS FOR PICORNAVIRUS ANTI-VIRAL AGENTS” (University of Connecticut, priority 2022, published 2024)
“Also recorded” adds a separate entry of the source. Counter-ions that a name gives are not always drawn. Like-named read-outs stand apart in the source and are kept apart here.

Key:
EV-A71 = assay: CPE inhibition assay (Cell Titer Glo) against EV-A71 in Vero cells; format: cell-based, Enterovirus A71; details: for anti-viral activity (luminescence above 3SD cutoff): single concentration 50 μM
Vero cells = assay: Cytotoxicity assay (Cell Titer Glo); details: for CC50: Vero cells
EV-A71 Δ2C^116-329 [1] = target: T1, EV-A71 Δ2C^116-329 (Human enterovirus 71, UniProt Q66478); assay: biochemical; format: biochemical; details: for inhibition of the ATPase function of Δ2C^116-329 (absorbance below 3SD cutoff): single concentration 50 μM
T1 construct: EV-A71 Δ2C (amino acids 116-329) was designed with; made in house; host or cells: E. coli Rosetta 2(DE3) pLysS, pMALc5x vector

EV-A71 Δ2C^116-329 [2] = target: T1, EV-A71 Δ2C^116-329; format: binding; details: 0.02 μM to 200 μM compound
EV-D68 = assay: CPE inhibition assay against EV-D68 in Vero cells; format: cell-based; details: Enterovirus D, EVD68, read-out: IC50 for virus induced CPE inhibition
[3] = tested on: poliovirus Mahoney strain; assay: microbe, parasite or virus in culture; format: cell-based; details: Enterovirus C, Vero, read-out: IC50 for virus induced CPE inhibition
[4] = tested on: coxsackievirus-B3 (CV-B3); assay: CPE inhibition assay against CV-B3 in HeLa cells; format: cell-based
PV-1 = format: cell-based, Poliovirus
CV-B3 = assay: NIAID cytopathic effect assay, CV-B3; format: cell-based, Coxsackievirus B3
[5] = tested on: Eastern equine encephalitis virus; format: cell-based
human echovirus-11 = assay: NIAID cytopathic effect assay, human echovirus-11; format: cell-based
human echovirus-30 = assay: NIAID cytopathic effect assay, human echovirus-30; format: cell-based
influenza A (H1N1) = assay: NIAID cytopathic effect assay, influenza A (H1N1); format: cell-based
West Nile virus = assay: NIAID cytopathic effect assay, West Nile virus; format: cell-based
[6] = tested on: Middle East Respiratory Syndrome; format: cell-based
in vitro [7] = details: African green monkey
in vitro [8] = assay: in vitro
EV-A71 replicon = EV-A71 replicon assay in HeLa cells; details: 1, 5 or 25 μM, 14 hours post transfection
EV-71 [9] = assay: microbe, parasite or virus in culture; details: Enterovirus A, EV71, read-out: EC90 μM
[10] = NIAID secondary assay, Virus Yield Reduction, EV-68
EV-68 [11] = assay: as above; details: Enterovirus D, EV68, read-out: EC90 μM
[12] = NIAID secondary assay, Neutral Red (CPE/Tox), EV-71
EV-71 [13] = assay: as above; details: Enterovirus A, EV71, read-out: EC50 μM
[14] = NIAID secondary assay, Neutral Red (CPE/Tox), EV-68
EV-68 [15] = assay: as above; details: Enterovirus D, EV68, read-out: EC50 μM
[16] = NIAID Antiviral Program for Pandemics primary assay (CPE/Tox), EV-71; details: CC50 µM, primary assay, EV-71
EV-71 [17] = assay: as above; details: Enterovirus A
[18] = NIAID Antiviral Program for Pandemics primary assay (CPE/Tox), EV-68; details: CC50 µM, primary assay, EV-68
EV-68 [19] = assay: as above; details: Enterovirus D
[20] = target: T2, EV-A71 Δ2C^116-329 (2C ATPase) (Enterovirus A71, UniProt B9VUU3); assay: 2C ATPase inhibition assay (colorimetric malachite green, dose response); format: biochemical
T2 construct: Ni-NTA and SEC purified

[21] = Cytotoxicity assay (Cell Titer Glo); details: African green monkey, CC50 (μM), Table 6; Vero cells
wild type EV-A71 (WT) = format: cell-based; details: 500 μM compound; Vero cells
[22] = tested on: EV-A71-TN (VP1-T237N mutant); format: cell-based, Enterovirus A71; details: 500 μM compound; Vero cells
EV-A71 Δ2C^116-329 [23] = details: previously observed; cited from earlier work
[24] = Enterovirus A, EVA71, EV-A71, Vero cells, read-out: IC50 for inhibition of virus-induced CPE
[25] = Enterovirus A, EVA71, Table 7, EV-A71, Vero cells, read-out: IC50

T1 sequence (Q66478 1227-1440, stated change not applied): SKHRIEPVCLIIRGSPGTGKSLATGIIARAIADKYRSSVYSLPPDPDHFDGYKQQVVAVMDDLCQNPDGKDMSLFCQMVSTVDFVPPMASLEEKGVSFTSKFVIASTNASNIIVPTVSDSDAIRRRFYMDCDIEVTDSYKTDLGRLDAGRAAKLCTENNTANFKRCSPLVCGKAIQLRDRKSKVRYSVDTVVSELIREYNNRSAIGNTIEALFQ
T2 sequence (B9VUU3 1227-1440, stated change not applied): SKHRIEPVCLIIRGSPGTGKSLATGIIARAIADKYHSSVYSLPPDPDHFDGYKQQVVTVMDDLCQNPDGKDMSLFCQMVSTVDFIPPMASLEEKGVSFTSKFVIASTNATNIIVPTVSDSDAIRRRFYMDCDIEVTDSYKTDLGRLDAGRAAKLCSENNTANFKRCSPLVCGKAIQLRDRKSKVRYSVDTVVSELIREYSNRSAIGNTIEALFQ

Molecule: Cc1[nH]c2ccc(Br)cc2c1CCN [Compound T5, [2-(5-bromo-2-methyl-1H-indol-3-yl)ethyl]aminehydrochloride]
- IC50 (EV-A71; Table 6, EV-A71, Vero cells, read-out: IC50): 103 µM
- CC50 (Vero cells; Table 6): 61.6 µM

Molecule: Cc1ccc2[nH]c(-c3ccc(NC(=O)c4cccs4)cc3)nc2c1 [Compound 36, N-[4-(5-methyl-1H-benzimidazol-2-yl)phenyl]-2-thiophenecarboxamide]
- IC50 (EV-A71 Δ2C^116-329 [1]): 23.4 µM
- dose dependence of inhibition of the ATPase function of Δ2C^116-329 (EV-A71 Δ2C^116-329 [1]; dose response): clear dose-dependent response
- Selectivity Index (EV-A71): 29.59
- selectivity index (EV-A71): 29.6
- IC50 (EV-A71; [24]): 2.66 µM
- IC50 (EV-A71; Enterovirus A, EVA71, Table 8, virus-induced CPE, EV-A71, Vero cells, read-out: IC50): 2.66 µM
- shift in melting temperature (Tm) of Δ2C^116-329 (EV-A71 Δ2C^116-329 [2]): dose-dependent increase in the Tm
- IC50 (EV-D68): 0.85 µM
- IC50 [3]: 1.7 µM
- inhibition of CV-B3 [4]: did not inhibit; also recorded: not active
- activity against PV-1 (PV-1): no activity
- activity against CV-B3 (CV-B3): no activity
- activity against Eastern equine encephalitis virus [5]: no activity
- activity against human echovirus-11 (human echovirus-11): no activity
- activity against human echovirus-30 (human echovirus-30): no activity
- activity against influenza A (H1N1) (influenza A (H1N1)): no activity
- activity against West Nile virus (West Nile virus): no activity
- activity against Middle East Respiratory Syndrome [6]: no activity
- CC50 at 3 days (in vitro [7]; CC50): 78.7 µM
- CC50 at 3 days (in vitro [7]; CC50 (μM)): 78.7 µM
- CC50 (in vitro [8]): 27 µM
- number of reporter positive cells compared with the untreated control (EV-A71 replicon): no statistically significant difference
- EC90 (EV-71 [9]): 3.2 µM
- CC50 [10]: 9.4 µM
- EC90 (EV-68 [11]): 0.59 µM
- CC50 [12]: 25 µM
- EC50 (EV-71 [13]): 1.7 µM
- CC50 [14]: 3.5 µM
- EC50 (EV-68 [15]): 0.52 µM
- CC50 ([16]; Neutral Red (CPE/Tox)): 42 µM
- CC50 ([16]; Visual (CPE/Tox)): 32 µM
- EC50 (EV-71 [17]; EV71, read-out: EC50 μM, primary assay, EV-71, Neutral Red (CPE/Tox)): 4.7 µM
- EC50 (EV-71 [17]; EV71, read-out: EC50 μM, primary assay, EV-71, Visual (CPE/Tox)): > 32 µM
- EC50 (EV-71 [17]; EV71|EVA71, read-out: EC50 against EV-A71, text, primary cytopathic effect assay): 4.2 µM
- CC50 ([18]; Neutral Red (CPE/Tox)): 9 µM
- CC50 ([18]; Visual (CPE/Tox)): 24 µM
- EC50 (EV-68 [19]; EV68, read-out: EC50 μM, primary assay, EV-68, Neutral Red (CPE/Tox)): 0.39 µM
- EC50 (EV-68 [19]; EV68, read-out: EC50 μM, primary assay, EV-68, Visual (CPE/Tox)): 0.52 µM
- EC50 (EV-68 [19]; EV68|EVD68, read-out: EC50 against EV-D68, text, primary cytopathic effect assay): 0.39 to 0.52 µM

Molecule: OC(COC(c1ccc(F)cc1)c1ccc(F)cc1)Cn1cnc2cc(F)c(F)cc21 (stereo not drawn) [Compound 108, 1-[bis(4-fluorophenyl)methoxy]-3-(5,6-difluoro-1H-1,3-benzodiazol-1-yl)propan-2-ol]
- inhibition of the ATPase function of Δ2C^116-329 (absorbance below 3SD cutoff) (EV-A71 Δ2C^116-329 [1]): inhibited 2C ATPase; also recorded: inhibited the ATPase function
- anti-viral activity (luminescence above 3SD cutoff) (EV-A71; EV-A71, Vero cells): did not show activity above the threshold value
- IC50 [20]: 57.3 µM

Molecule: Nc1nc(N)nc(COC(=O)CCc2c(-c3ccc(F)cc3)[nH]c3ccc(F)cc23)n1 [Compound 111, (4,6-diamino-1,3,5-triazin-2-yl)methyl 3-[5-fluoro-2-(4-fluorophenyl)-1H-indol-3-yl]propanoate]
- inhibition of the ATPase function of Δ2C^116-329 (absorbance below 3SD cutoff) (EV-A71 Δ2C^116-329 [1]): inhibited 2C ATPase; also recorded: inhibited the ATPase function
- IC50 (EV-A71; [24]): 44.7 µM
- IC50 (EV-A71; [25]): 44.7 µM
- Selectivity Index (EV-A71; Table 7, CC50/IC50): 9.44
- selectivity index (EV-A71; from IC50 and CC50): 9.44
- anti-viral activity (luminescence above 3SD cutoff) (EV-A71; EV-A71, Vero cells): inhibited EV-A71
- IC50 [20]: 7.5 µM
- CC50 at 3 days (in vitro [7]; CC50): 422 µM
- CC50 at 3 days (in vitro [7]; CC50 (μM)): 422 µM

Molecule: Cc1ccc2[nH]c(-c3ccc(NC(=O)c4ccco4)cc3)nc2c1 [Compound T3, N-[4-(5-methyl-1H-benzimidazol-2-yl)phenyl]-2-furamide]
- IC50 (EV-A71; [24]): 2.9 µM
- IC50 (EV-A71; Enterovirus A, EVA71, Table 6, EV-A71, Vero cells, read-out: IC50): 2.9 µM
- Selectivity Index (EV-A71; Table 6, CC50/IC50): >68.97
- selectivity index (EV-A71; from IC50 and CC50): > 68.9
- CC50 at 3 days [21]: > 200 µM
- toxicity to Vero cells (Vero cells; up to 200 μM): no toxicity

Molecule: O=C(Cn1nc2c(Oc3cccc(F)c3)nccn2c1=O)Nc1cccc(Cl)c1 [Compound 167, N-(3-chlorophenyl)-2-[8-(3-fluorophenoxy)-3-oxo-2H,3H-[1,2,4]triazolo[4,3-a]pyrazin-2-yl]acetamide]
- inhibition of the ATPase function of Δ2C^116-329 (absorbance below 3SD cutoff) (EV-A71 Δ2C^116-329 [1]): inhibited 2C ATPase; also recorded: inhibited the ATPase function
- IC50 (EV-A71; [24]): 59.4 µM
- IC50 (EV-A71; [25]): 59.4 µM
- Selectivity Index (EV-A71; Table 7, CC50/IC50): >16.8
- selectivity index (EV-A71; from IC50 and CC50): > 16.8
- anti-viral activity (luminescence above 3SD cutoff) (EV-A71; EV-A71, Vero cells): inhibited EV-A71
- decrease in viral titer vs DMSO (wild type EV-A71 (WT)): ~100 fold
- decrease in viral titer vs DMSO [22]: ~5 fold
- IC50 [20]: 61.2 µM
- CC50 at 3 days (in vitro [7]; CC50): > 400 µM
- CC50 at 3 days (in vitro [7]; CC50 (μM)): > 1000 µM

Molecule: N-[4-(5-methyl-1H-benzimidazol-2-yl)phenyl]-2-(3-7-phenylthio)acetamide [Compound 42]
- IC50 (EV-A71; Table 10, Scaffold 1, EV-A71, Vero cells, read-out: IC50): 6.99 µM
- CC50 (Vero cells; Table 10, Scaffold 1): 684 µM

Molecule: Cl.N=C(N)N [GnHCl, Guanidinium hydrochloride, reference compound]
- IC50 (EV-A71 Δ2C^116-329 [1]; read-out: IC50 for ATPase inhibition): 83600 µM
- IC50 (EV-A71; read-out: IC50 for inhibition of EV-A71): 140 µM
- IC50 for inhibition of the ATPase activity of 2C (EV-A71 Δ2C^116-329 [23]): millimolar range

Molecule: O=c1nc(C=Cc2cn(Cc3ccccc3Cl)c3ccccc23)cc(C(F)(F)F)[nH]1 [Compound 139, 4-(2-{1-[(2-chlorophenyl)methyl]-1H-indol-3-yl}ethenyl)-6-(trifluoromethyl)-1,2-dihydropyrimidin-2-one]
- inhibition of the ATPase function of Δ2C^116-329 (absorbance below 3SD cutoff) (EV-A71 Δ2C^116-329 [1]): inhibited 2C ATPase; also recorded: inhibited the ATPase function
- anti-viral activity (luminescence above 3SD cutoff) (EV-A71; EV-A71, Vero cells): did not show activity above the threshold value
- IC50 [20]: 71.3 µM
